Assay results: patent US20190030049A1, “Celocoxib Binding Antibodies and Uses Thereof” (Marina Biotech, Inc., priority 2016, published 2019)

Assay: clinical
Details: human, plasma

AUC (100 mg): 3.4 µg·h/mL | AUC (200 mg): 6.8 µg·h/mL
SMILES: Cc1ccc(-c2cc(C(F)(F)F)nn2-c2ccc(S(N)(=O)=O)cc2)cc1 [celecoxib, Celecoxib]
